From patent US20210122780A1, “COMPOSITIONS FOR THE PREVENTION AND TREATMENT OF PARKINSON'S DISEASE” (Metselex, Inc., priority 2018, published 2021) come the findings set out here.

The format of series [1] is physicochemical. To be noted: for percent starting material remaining: after one week at rt in D2O solution; for stability on cold storage: stored in a freezer / cold. Here is the method:
Measurement of chemical stability of phosphorylated compounds. 4.0 mg of prodrug (19b, 19c, or 19d) were dissolved in 1.0 mL D2O. A sealed capillary tube containing phenylphosphonic acid dissolved in D2O was added as a standard. At time=0, a ^1H NMR spectrum was obtained and the proton signal at […]5.51 was integrated (It=0) relative to the aromatic signals from phenylphosphonic acid. After 7 days at rt, a new NMR spectrum was taken and the proton signal at δ 5.51 was integrated again (It=7). The percent starting material remaining was It=7/It=0×100. Each experiment was repeated three times. Chemical stability results obtained either by measuring the disappearance of starting material relative to the internal standard by ^31P NMR or by using inverse-gated decoupled phosphorus NMR and integrating starting material and product were very similar to the numbers obtained using ^1H NMR. For 19e, 4.0 mg 19b was dissolved in D2O and an additional equivalent of Tris added (the stoichiometry was confirmed by ^1H NMR) and the experiment conducted as above.

The format of series [2] is physicochemical. To be noted: after one day at rt. Here is the method:
Chemical stability in pH 7.4 tris-buffered saline. 4.0 mg of prodrug 19d was dissolved in 0.9 mL H2O. To this solution was added 0.1 mL of tris-buffered saline (BM-300 from Boston BioProducts), containing tris (250 mM), KCl (27 mM), and NaCl (1.37 M). A sealed capillary tube containing phenylphosphonic acid dissolved in D2O was added as a standard. Chemical stability results were obtained by measuring the disappearance of starting material relative to the internal standard by ^31P NMR. The experiment was repeated three times. The standard deviation was ±3%.

For series [3], the system named is Alkaline phosphatase from bovine intestinal mucosa. The series can be described thus: Alkaline phosphatase activation of prodrugs (31P NMR). Type of series: biochemical. To be noted: in vitro, FIG. 5. Here is the method:
Alkaline phosphatase activation of prodrugs 3 and 19d. Alkaline phosphatase from bovine intestinal mucosa (Sigma-Aldrich, P5521-2KU) was dissolved in 2.0 mL of a 0.100 M sodium glycine buffer containing 1.0 mM ZnCl2 and 1.0 mM MgCl2. This stock solution was stored at 4° C. between uses.
(§1) Compound 19d (10.0 mg, 0.016 mmol) or compound 3 (8.7 mg, 0.016 mmol) were dissolved in 0.6 mL of a 0.100 M tris glycine buffer solution containing 1.0 mM ZnCl2 and 1.0 mM MgCl2. […] 50 μL of the previously prepared AP stock solution was further diluted by addition to 0.950 mL of a 0.100 M tris glycine buffer containing 1.0 mM ZnCl2 and 1.0 mM MgCl2. 10.0 μL of this diluted AP solution was added to the prodrug solution by syringe. A series of 42 inverse-gated decoupled ^31P NMR's were taken (24 scans each, approximately one minute acquisition time). Conversion (%) was determined from the relative integration of the starting material and product peaks, NMR time stamps were used to determine time. Each experiment was repeated three times.

Series [4] in a line: Stability in tris glycine buffer before AP addition (31P NMR). To be noted: 0.100 M tris glycine buffer, 1.0 mM ZnCl2, 1.0 mM MgCl2, 1 h. Type of series: physicochemical. Here is the method: as §1
Series [5] is described as follows: Aqueous solubility of prodrug salts. To be noted: water.
Series [6] has as its system SH-SY5Y cells. The series is described as follows: MTT cell viability, SNP-induced cytotoxicity. To be noted: for impact on UDCA-mediated protection against SNP-induced cytotoxicity: inhibitor 1 h, UDCA 200 μM 1 h, SNP 1 mM 24 h.
Description: (§3) Human dopaminergic neuronal cell line, SH-SY5Y, was cultured in DMEM/F12 medium supplemented with 10% FBS (v/v), penicillin (100 U/m)-streptomycin (100 μg/ml) in 5% CO2 at 37° C. […] Usually, the culture medium was changed to DMEM/F12 medium with 0.5% FBS before any treatment to reduce the serum effect. In order to prevent the direct interaction between the treated chemicals, the culture medium was changed to fresh low-serum medium at the ent of pretreatment. UDCA was dissolved in ethanol as a 100× stock solution and diluted to the desired final concentrations. To estimate cell viability, 3-(4,5-dimetnylthiazol-2-yl)-2,5-diphenyltetrazolium bromide (MTT) reduction assay was performed. After cells were treated ad culture medium was removed, MTT solution (50 μg, 1 mg/ml in phosphate buffered saline, PBS) was added to each well in 96-well plate and incubated for 4 h at 37° C. The medium was carefully removed, 100 μl DMSO added to each well, and the plate agitated on an orbital shaker for 15 min to dissolve the formazan. The absorbance was measured at 540 nm using a microplate reader (SepctraMax M2, Molecular Devices).
In series [7] the test system is SH-SY5Y cells.
Description: as §3
Series [8] relates to SH-SY5Y cells. The series is described as follows: Nuclear staining (Hoechst 33342/PI) for apoptosis and necrosis. It is filed as cell-based, human. To be noted: pretreatment prior to SNP 1 mM 24 h. Here is the method: For the fluorescent detection of apoptotic and necrotic cells, nuclear staining with Hoechst dye 33342 and propidium iodide (PI) was performed. SH-SY5Y cells were exposed to SNP (1 mM) for 24 h with or without pretreatment with UDCA or YS. After fixation with 1% paraformaldehyde (PBS) for 30 min at room temperature, cells were washed with PBS and then stained with Hoechst 33342 (10 μM) for 10 min. Cells were washed with PBS and further stained with PI (10 μM) for 10 min. Stained cells were washed with PBS and observed under a fluorescent microscopy. The apoptotic cells were determined as bright condensed and fragmented nuclei. PI positive cells stained with pink to red color were counted as necrotic cells.

The test system of series [9] is SH-SY5Y cells. The series is described as follows: Total ROS production (H2DCFDA). It is filed as cell-based, human. To be noted: 1 mM SNP. Here is the method: (§2) After washing with Hank's balanced salt solution (HBSS), cells were incubated with 20 μM H2DCFDA or 50 μM DHR at 37° C. for 30 min, and then rinsed with HBSS. The fluorescence intensity was measured using an automatic fluorescence microplate reader (SpectraMax M2, Molecular Devices) at an excitation wavelength of 485 nm and an emission of 535 nm. The values were expressed as a percentage of fluorescence intensity to the untreated control group. The production of NO was determined by measuring nitrite, a stable oxidation product of NO in the culture medium. […] After a 10-min reaction, the absorbance at 550 nm was measured in a microplate reader (VersaMax, Molecular Devices). Sodium nitrite (NaNO2) was used as a standard to calculate nitrite concentrate and the values were expressed in micromoles.

The subject of series [10] is SH-SY5Y cells. The series is described as follows: NO production (Griess reagent, nitrite). Type of series: cell-based, human. To be noted: SNP 24 h. Here is the method:
as §2
In general terms: Nitrite, measured by Griess reagent, commonly stands in for NO production.

Series [11] relates to SH-SY5Y cells. The series is described as follows: Mitochondrial membrane potential (JC-1). Type of series: cell-based, human. Here is the method: Anaspec Inc.). JC-1 preferentially accumulates in mitochondria as red aggregates in normal conditions but it exists as green monomers in the cytosol when MMP collapsed during apoptosis. The ratio of red/green fluorescence correlates with MMP. […] Next, 5 μg/ml JC-1 was added and incubated at 37° C. for 15 min in dark. After wash three times with PBS, MMP was measured at 535/590 nm (Ex/Em) for red fluorescence and 485/535 (Ex/Em) for green fluorescence using a fluorescence multimode microplate reader (Infinite 200; Tecan). Results were calculated as the ratio of red-to-green fluorescence and the values were expressed as the percentage over control.

The test system of a further series is Bcl-2, Bax, cytochrome c. The series is described as follows: Immunoblot analysis of Bcl-2, Bax, cytochrome c. Type of series: cell-based, human. (In general: In western blotting, separated proteins are transferred to a membrane and probed.)
For a further series, the system named is Primary rat hepatocytes. The series can be described thus: Microarray gene expression profiling (Affymetrix Rat Expression Array 230A). It is filed as cell-based. To be noted: 100 μM UDCA, 24 h. Here is the method:
We determined the global profile of genes regulated by UDCA by using Affymetrix GeneChip® Rat Expression Array 230A, consisting of approximately 16,000 transcripts and variants. cRNA prepared from vehicle-treated cells was used for comparative analysis. The relative levels of gene expression after 24 h treatment of hepatocytes with 100 μM UDCA were compared by plotting the average difference between cells, and determining the fold change in gene expression. […] We also assessed the specificity and sensitivity of the microarray analysis. Hierarchical clustering was performed using specific gene subsets.

The subject of a further series is mitochondrial membrane. The series is described as follows: Bax-induced alterations of mitochondrial membrane (FIG. 1, 2).

SMILES strings stand for the structures. Entries after “also recorded” stand apart in the source; their conditions may differ. Where two headings read alike, the source gives them in different places.

Description for Bcl-2, Bax, cytochrome c: Whole cell proteins were extracted using RIPA buffer (PBS, 1% NP-40, 0.5% Na deoxycholate, 0.1% SDS, 0.1 mg/ml PMSF, 30 mg/ml aprotinin, 1 mM Na3VO4). Cells were washed twice with PBS, lysed with RIPA buffer for 30 min on ice, and then centrifuged at 14,000×g for 10 min at 4° C. The supernatants were used as the total cell lysates. In some experiments, mitochondrial fraction was prepared from SH-Sy5Y cells using mitochondrial/cytosolic fraction kit (Biovision, Inc., Mountain View) according to the manufacturer's protocol. Protein concentration was determined by BCA protein assay kit (BioRad, Hercules, Calif.) using bovine serum albumin as a standard. […] The membrane was flocked in fresh blocking buffer (5% nonfat dry milk in Tris-buffered saline, pH 7.4, and containing 0.1% Tween 20) for 2 h at room temperature and rinsed in TBST buffer (0.1% Tween 20 in Tris-buffered saline, pH 7.4). The membrane was incubated at 4° C. with the following primary antibodies at dilutions of 1/1000: Bax, cytochrome c, Cox-4 or 1/4000: Bcl-2, actin. After three times washing with TBST buffer, membranes were incubated with horse radish peroxidase (HRP)-conjugated secondary antibodies (1:2000 dilutions) for 2 h at room temperature. Subsequently, the membrane was washed in TBST and the immunoreactive bands were detected by ECL chemiluminescence kit (GE Healthcare, USA). Protein bands were quantified by densitometric analysis.

As for `CC(CCC(=O)OCOP(=O)(O)O)C1CCC2C3C(O)CC4CC(O)CCC4(C)C3CCC12C` (stereo not shown) [Compound 19c, ursodeoxycholic acid phosphonooxymethoxy ester], the “percent starting material remaining” value in series [1] was 34%.
In the case of `CC(CCC(=O)OCOP(=O)(O)O)C1CCC2C3C(O)CC4CC(O)CCC4(C)C3CCC12C` (stereo not shown) [Compound 19d, ursodeoxycholic acid phosphonooxymethoxy ester], the “percent starting material remaining” value in [1] was found to be 88%. Also, in series [1] (solution, ambient temperature), the “chemical stability in solution” value is recorded as “decomposed at a much slower rate”. The “stability on cold storage” value in series [1] (listed as mono-Tris salt of 19) is “stable for extended periods when stored cold”. For the same compound, the “percent remaining in pH 7.4 tris buffer” value in [2] is recorded as 81%. Moreover, the “rate of alkaline phosphatase catalyzed release of UDCA” value in series [3] is given as “more rapidly released”. Also, in [4], the “decomposition by 31P NMR in buffer” value is reported as “Neither compound showed decomposition”. The “aqueous solubility, rapidly dissolving at all concentrations tested” value (from here on “aqueous solubility, rapidly dissolving”) in [5] is given as more than 20 mg/mL.
Regarding `O=c1cc(N2CCOCC2)oc2c(-c3ccccc3)cccc12` [LY294002], in the series with SH-SY5Y cells [6], the “impact on UDCA-mediated protection against SNP-induced cytotoxicity” value is listed as “reversed”.
As for `C[C@H](CCC(=O)[O-])[C@H]1CC[C@H]2[C@@H]3[C@@H](OCOP(=O)(O)O)C[C@@H]4C[C@H](O)CC[C@]4(C)[C@H]3CC[C@]12C.C[C@H](CCC(=O)[O-])[C@H]1CC[C@H]2[C@@H]3[C@@H](OCOP(=O)(O)O)C[C@@H]4C[C@H](O)CC[C@]4(C)[C@H]3CC[C@]12C.[Na+].[Na+]` [Compound 13b, 7-(Phosphonooxymethoxy)-ursodeoxycholic acid sodium salt], in [1] (D2O, overnight), the “stability in D2O solution overnight” value was “a significant portion of the material decomposed”. Further, in series [5], the “aqueous solubility, rapidly dissolving” value is reported as not below 10 mg/mL.
Consider `C[C@H](CCC(=O)[O-])[C@H]1CC[C@H]2[C@@H]3[C@@H](O)C[C@@H]4C[C@H](OP(=O)([O-])O)CC[C@]4(C)[C@H]3CC[C@]12C.[Na+].[Na+]` [Compound 3, 3-(Phosphonatooxy)-ursodeoxycholic acid sodium salt], for which the “decomposition by 31P NMR in buffer” value in [4] is “Neither compound showed decomposition”.
`COc1ccc2c(c1)c(C1=C(c3c[nH]c4ccccc34)C(=O)NC1=O)cn2CCCN(C)C` [Go6983]: the “cell viability, inhibitor alone” value in the series on SH-SY5Y cells [7] is on record as “had no effects on cell viability”. The “impact on UDCA-mediated protection against SNP-induced cytotoxicity” value in the series with SH-SY5Y cells [6] was “did not have significant impact”.
As for `CC(CCC(=O)OCOP(=O)(O)O)C1CCC2C3C(O)CC4CC(O)CCC4(C)C3CCC12C` (stereo not shown) [Compound 19b, ursodeoxycholic acid phosphonooxymethoxy ester], in series [1], the “percent starting material remaining” value is reported as 36% and the “stability on cold storage” value is listed as “stable for extended periods of time when stored in a freezer”. Further, the “aqueous solubility, rapidly dissolving” value in series [5] is not below 20 mg/mL.
With `C[C@H](CCC(=O)O)[C@H]1CC[C@H]2[C@@H]3[C@@H](O)C[C@@H]4C[C@H](O)CC[C@]4(C)[C@H]3CC[C@]12C` [UDCA, ursodeoxycholic acid], the apoptotic rate with SH-SY5Y cells [8] amounted to 8.45±2.01%. In addition, the “ROS generation, % of SNP-treated group” value in the series with SH-SY5Y cells [9] (50 μM pretreatment) is listed as 79.68%; in the series on SH-SY5Y cells [9] (100 μM pretreatment), 72.59%; in the series on SH-SY5Y cells [9] (200 μM pretreatment), 58.09%. In addition, the figures for the “NO production compared with the group treated with SNP alone” value in the series with SH-SY5Y cells [10] (50 μM pretreatment), in the series on SH-SY5Y cells [10] (100 μM pretreatment) and with SH-SY5Y cells [10] (200 μM pretreatment) were 91.44%, 82.88% and 77.26%, respectively. In the series with SH-SY5Y cells [11] (Homo sapiens, SH-SY5Y, 50 μM pretreatment, 1 mM SNP 12 h, read-out: MMP, % of control group), the activity at 50 µM came out at 71%. For the same compound, the activity at 100 µM in the series with SH-SY5Y cells [11] (Homo sapiens, SH-SY5Y, 100 μM pretreatment, 1 mM SNP 12 h, read-out: MMP, % of control group) amounted to 88%. The activity at 200 µM with SH-SY5Y cells [11] (Homo sapiens, SH-SY5Y, 200 μM pretreatment, 1 mM SNP 12 h, read-out: MMP, % of control group) is 87%. Further, the “MMP, substance alone” value with SH-SY5Y cells [11] (no SNP, FIG. 4B) is recorded as “did not show any alterations in MMP”. In addition, the “ratio of Bcl-2/Bax” value was 2.52±0.16 fold of control in the series on Bcl-2, Bax, cytochrome c (UDCA per se) and 2.21±0.09 fold of control in the series on Bcl-2, Bax, cytochrome c (pretreatment with UDCA prior to SNP treatment). The “cytochrome c release from the mitochondria into the cytosol” value in the series on Bcl-2, Bax, cytochrome c (pretreatment with UDCA, SNP 1 mM) is 1.41±0.06 fold of control. The “altered genes fulfilling the filtering criteria” value in the series with Primary rat hepatocytes worked out at 96 genes. The compound also gave a genes down-regulated in the series with Primary rat hepatocytes of 68 genes. In the series on Primary rat hepatocytes, the genes up-regulated is 28 genes. For the same compound, the “genes with alterations in expression, greater than 1.5-fold change” value in the series on Primary rat hepatocytes is recorded as “Approximately 441 genes”. The “share of genes with alterations in expression” value with Primary rat hepatocytes is reported as approximately 2.76%. In addition, the “cell viability, substance alone” value with SH-SY5Y cells [6] (24 h at doses of 50-200 μM, no SNP) is listed as “no obvious change in the viability”. Also, the “SNP-induced loss of cell viability / cytotoxicity” value in the series with SH-SY5Y cells [6] (pretreatment 1 h, then 1 mM SNP 24 h) is on record as “prevented; also recorded: significantly attenuated”.
`C[C@H](CCC(=O)NCCS(=O)(=O)O)[C@H]1CC[C@H]2[C@@H]3[C@@H](O)C[C@@H]4C[C@H](O)CC[C@]4(C)[C@H]3CC[C@]12C` [TUDCA, tauroursodeoxycholic acid]: the “Bax-induced alterations in mitochondrial membrane polarity” value in the series with mitochondrial membrane (FIG. 1) was “prevents”. In addition, the “Bax-induced alterations in mitochondrial membrane protein order” value with mitochondrial membrane (FIG. 2) is recorded as “prevents”.
